# Patent publication US20100286215A1, “BIS-AROMATIC COMPOUNDS USEFUL IN THE TREATMENT OF INFLAMMATION” (BIS-AROMATIC COMPOUNDS USEFUL IN THE TREATMENT OF …, priority 2007, published 2010)
# Biological target: T1, Recombinant human LTC4 synthase (Homo sapiens, UniProt Q16873)
# T1 construct: made in house; host or cells: Pichia pastoris ('Piccia pastoralis' [sic])
# T1 sequence (Q16873 1-150): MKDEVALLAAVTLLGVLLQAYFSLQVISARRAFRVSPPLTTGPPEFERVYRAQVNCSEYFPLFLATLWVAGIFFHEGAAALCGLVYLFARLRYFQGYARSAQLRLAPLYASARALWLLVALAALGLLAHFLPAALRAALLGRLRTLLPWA
# Assay: LTC4 synthase assay (conversion of LTA4 methyl ester to LTC4 methyl ester, HPLC)
# Assay type: biochemical
# Details: not given
# Procedure: In the assay LTC4 synthase catalyses the reaction where the substrate LTA4 methyl ester is converted to LTC4 methyl ester. Recombinant human LTC4 synthase is expressed in Piccia pastoralis and the purified enzyme is dissolved in 25 mM Tris-buffer pH 7.8 and stored at −20° C. The assay is performed in phosphate buffered saline (PBS) pH 7.4, supplemented with 5 mM glutathione (GSH). The reaction is terminated by addition of acetonitrile/MeOH/acetic acid (50/50/1). The assay is performed at rt in 96-well plates. Analysis of the formed LTC4 methyl ester is performed with reversed phase HPLC (Waters 2795 utilizing an Onyx Monolithic C18 column). The mobile phase consists of acetonitrile/MeOH/H2O (32.5/30/37.5) with 1% acetic acid pH adjusted with NH3 to pH 5.6, and absorbance measured at 280 nm with a Waters 2487 UV-detector.
# The following is added chronologically to each well: • 1. 50 μl assay buffer, PBS with 5 mM GSH. • 2. 0.5 μl inhibitor in DMSO. • 3. 2 μl LTC4 synthase in PBS. The total protein concentration in this solution is 0.025 mg/ml. Incubation of the plate at room temperature for 10 minutes. • 4. 0.5 μl LTA4 methyl ester. Incubation of the plate at rt for 1 min. • 5. 50 μl stop solution. 80 μl of the incubation mixture is analysed with HPLC.
row,Compound,IC50
1,"CCCCOc1ccc(S(=O)(=O)Nc2ccc(C(=O)c3ccc(NC(=O)c4ccc(OC(C)C)cc4)c(C(=O)O)c3)cc2C(=O)O)cc1 [Example 13, 5-[(3-Carboxy-4-(4-n-butoxy-benzenesulfonylamino)benzoyl)]-2-(4-isopropoxybenzoylamino)-benzoic acid]",86 nM
2,"CC(C)Oc1ccc(Nc2ccc(C(=O)c3ccc(Nc4ccc(OC(C)C)cc4)c(C(=O)O)c3)cc2C(=O)O)cc1 [Example 2, 2-(4-isopropoxyphenylamino)-5-(4-(4-isopropoxyphenylamino)-3-carboxyphenylcarbonyl)benzoic acid]",258 nM
3,"O=C(Nc1ccc(C(=O)c2ccc(NC(=O)c3ccc(C(F)(F)F)cc3F)c(C(=O)O)c2)cc1C(=O)O)c1ccc(C(F)(F)F)cc1 [Example 8, 2-(2-fluoro-4-(trifluoromethyl)benzamido)-5-(4-(4-(tri-fluoromethyl)benzamido)-3-carboxyphenylcarbonyl)-benzoic acid]",73 nM

# Same assay, conditions: inhibitor concentration 10 μM; read-out: Percantage Inhibition at 10 μM (unless specified otherwise)
row,Compound,inhibition at 10 µM
1,"CN(c1ccc(F)c(F)c1)c1ccc(C(=O)c2ccc(NC(=O)c3cc(Cl)ccc3O)cc2)cc1C(=O)O [Example 18, 5-(4-(5-chloro-2-hydroxy-benzamido)benzoyl)-2-((3,4-difluorophenyl)(methyl)-amino)benzoic acid]",100%
2,"CN(c1ccc(Cl)cc1)c1ccc(C(=O)c2ccc(Oc3ccccc3Cl)c(C(=O)O)c2)cc1 [6:4, 2-(2-Chloro-phenoxy)-5-{4-[(4-chloro-phenyl)-methyl-amino]-benzoyl}-benzoic acid]",97%
3,"CN(c1ccc(Cl)cc1)c1ccc(C(=O)c2ccc(NC(=O)c3cccc(Cl)c3Cl)c(-c3nnn[nH]3)c2)cc1 [10:4, 2,3-Dichloro-N-[4-{4-[(4-chloro-phenyl)-methyl-amino]-benzoyl}-2-(1H-tetrazol-5-yl)-phenyl]-benzamide]",77%
4,"CN(c1ccc(Cl)cc1)c1ccc(C(=O)c2ccc(Oc3cccc4c3CCCC4)c(C(=O)O)c2)cc1 [6:10, 5-{4-[(4-Chloro-phenyl)-methyl-amino]-benzoyl}-2-(5,6,7,8-tetrahydro-naphthalen-1-yloxy)-benzoic acid]",88%
5,"CCCCCCC(=O)Nc1ccc(C(=O)c2ccc(NC(=O)c3ccc(Cl)cc3Cl)c(C(=O)O)c2)cc1 [14:2, 2-(2,4-Dichloro-benzoylamino)-5-(4-heptanoylamino-benzoyl)-benzoic acid]",100%
6,"O=C(c1ccc(Nc2ccc(Cl)cc2)c(C(=O)O)c1)c1ccc(Nc2ccc(Cl)cc2)c(C(=O)O)c1 [11:1, 5-{3-Carboxy-[4-(4-chloro-phenylamino)]-benzoyl}-2-(4-chloro-phenylamino)-benzoic acid]",97%
7,"O=C(c1ccc(Nc2ccc(Cl)nc2)cc1)c1ccc(Nc2ccc(F)c(F)c2)c(C(=O)O)c1 [5:7, 5-[4-(6-Chloro-pyridin-3-ylamino)-benzoyl]-2-(3,4-difluoro-phenylamino)-benzoic acid]",90%
8,"CN(c1ccc(Cl)cc1)c1ccc(C(=O)c2ccc(Nc3cccc(C(F)(F)F)c3)c(C(=O)O)c2)cc1 [9:1, 5-{4-[(4-Chloro-phenyl)-methyl-amino]-benzoyl}-2-(3-trifluoromethyl-phenylamino)-benzoic acid]",90%
9,"O=C(Nc1ccc(C(=O)c2ccc(NC(=O)c3cccc4c3OC(F)(F)O4)c(C(=O)O)c2)cc1)c1cccc(Cl)c1 [7:6, 5-[4-(3-Chloro-benzoylamino)-benzoyl]-2-[(2,2-difluoro-benzo[1,3]dioxole-4-carbonyl)-amino]-benzoic acid]",100%
10,"O=C(CC1CCCC1)Nc1ccc(C(=O)c2ccc(NC(=O)c3ccc(Cl)cc3Cl)c(C(=O)O)c2)cc1 [14:1, 5-[4-(2-Cyclopentyl-acetylamino)-benzoyl]-2-(2,4-dichloro-benzoylamino)-benzoic acid]",93%
11,"CN(c1ccc(Cl)cc1)c1ccc(C(=O)c2ccc(Oc3cccc(Cl)c3F)c(C(=O)O)c2)cc1 [6:6, 2-(3-Chloro-2-fluoro-phenoxy)-5-{4-[(4-chloro-phenyl)-methyl-amino]-benzoyl}benzoic acid]",83%
12,"CCCCOc1ccc(S(=O)(=O)Nc2ccc(C(=O)c3ccc(NC(=O)c4ccc(OC(C)C)cc4)c(C(=O)O)c3)cc2C(=O)O)cc1 [Example 13, 5-[(3-Carboxy-4-(4-n-butoxy-benzenesulfonylamino)benzoyl)]-2-(4-isopropoxybenzoylamino)-benzoic acid]",100%
13,"CC(C)Oc1ccc(Nc2ccc(C(=O)c3ccc(Nc4ccc(OC(C)C)cc4)c(C(=O)O)c3)cc2C(=O)O)cc1 [Example 2, 2-(4-isopropoxyphenylamino)-5-(4-(4-isopropoxyphenylamino)-3-carboxyphenylcarbonyl)benzoic acid]",99%
14,"O=C(Nc1ccc(C(=O)c2ccc(NS(=O)(=O)c3ccc(Cl)cc3)cc2)cc1C(=O)O)c1cccc(Cl)c1 [7:11, 5-[4-(4-Chloro-benzenesulfonylamino)-benzoyl]-2-(3-chloro-benzoylamino)-benzoic acid]",98%
15,"O=C(Nc1ccc(C(=O)c2ccc(NC(=O)c3cccc4ccsc34)c(C(=O)O)c2)cc1)c1cccc(Cl)c1 [7:5, 2-[(Benzo[b]thiophene-7-carbonyl)-amino]-5-[4-(3-chloro-benzoylamino)-benzoyl]-benzoic acid]",100%
16,"O=C(Nc1ccc(C(=O)c2ccc(NC(=O)c3cccc(Cl)c3O)c(C(=O)O)c2)cc1)c1cccc(Cl)c1 [7:7, 5-[4-(3-Chloro-benzoylamino)-benzoyl]-2-(3-chloro-2-hydroxy-benzoylamino)-benzoic acid]",82%

row,Compound,inhibition at 10 µM
1,"CN(c1ccc(F)c(F)c1)c1ccc(C(=O)c2ccc(Nc3ccc(Cl)cc3)cc2)cc1C(=O)O [Example 19, 5-(4-(4-chlorophenylamino)-benzoyl)-2-((3,4-difluoro-phenyl)(methyl)amino)-benzoic acid]",75%
2,"CC(C)Oc1ccc(C(=O)Nc2ccc(C(=O)c3ccc(Nc4ccc(F)c(F)c4)c(C(=O)O)c3)cc2)cc1 [Example 15, 2-(3,4-difluorophenylamino)-5-(4-(4-isopropoxybenzamido)benzoyl)benzoic acid]",68%
3,"CN(c1ccc(Cl)cc1)c1ccc(C(=O)c2ccc(Nc3ccc(C(F)(F)F)cc3)c(C(=O)O)c2)cc1 [9:3, 5-{4-[(4-Chloro-phenyl)-methyl-amino]-benzoyl}-2-(4-trifluoromethyl-phenylamino)-benzoic acid]",86%
4,"O=C(Nc1ccc(C(=O)c2ccc(Nc3ccc(F)c(F)c3)c(C(=O)O)c2)cc1)c1cccc(Cl)c1 [5:11, 5-[4-(3-Chloro-benzoylamino)-benzoyl]-2-(3,4-difluoro-phenylamino)-benzoic acid]",87%
5,"O=C(Nc1ccc(C(=O)c2ccc(NC(=O)c3ccc(C(F)(F)F)cc3F)c(C(=O)O)c2)cc1C(=O)O)c1ccc(C(F)(F)F)cc1 [Example 8, 2-(2-fluoro-4-(trifluoromethyl)benzamido)-5-(4-(4-(tri-fluoromethyl)benzamido)-3-carboxyphenylcarbonyl)-benzoic acid]",100%
6,"CN(c1ccc(Cl)cc1)c1ccc(C(=O)c2ccc(Oc3cccc(C(F)(F)F)c3F)c(C(=O)O)c2)cc1 [6:7, 5-{4-[(4-Chloro-phenyl)-methyl-amino]-benzoyl}-2-(2-fluoro-3-trifluoromethyl-phenoxy)-benzoic acid]",96%
7,"COc1cc(Cl)ccc1Oc1ccc(C(=O)c2ccc(N(C)c3ccc(Cl)cc3)cc2)cc1C(=O)O [6:5, 2-(4-Chloro-2-methoxy-phenoxy)-5-{4-[(4-chloro-phenyl)-methyl-amino]-benzoyl}-benzoic acid]",98%
8,"CN(c1ccc(Cl)cc1)c1ccc(C(=O)c2ccc(Oc3cccc(Cl)c3)c(-c3nnn[nH]3)c2)cc1 [10:2, [4-(3-Chloro-phenoxy)-3-(1H-tetrazol-5-yl)-phenyl]-{4-[(4-chloro-phenyl)-methyl-amino]-phenyl}-methanone]",84%
9,"O=C(Nc1ccc(C(=O)c2ccc(NS(=O)(=O)c3ccc(Cl)cc3)c(C(=O)O)c2)cc1)c1cccc(Cl)c1 [7:2, 2-(4-Chloro-benzenesulfonylamino)-5-[4-(3-chloro-benzoylamino)-benzoyl]-benzoic acid]",100%
10,"CCCCOc1ccc(S(=O)(=O)Nc2ccc(C(=O)c3ccc(N(C)c4ccc(F)c(F)c4)c(C(=O)O)c3)cc2)cc1 [Example 17, 5-(4-(4-butoxyphenylsulfonamido)benzoyl)-2-((3,4-di-fluorophenyl)(methyl)amino)benzoic acid]",99%
11,"O=C(Nc1ccc(C(=O)c2ccc(NC(=O)c3cccc(F)c3F)c(C(=O)O)c2)cc1)c1cccc(Cl)c1 [7:4, 5-[4-(3-Chloro-benzoylamino)-benzoyl]-2-(2,3-difluoro-benzoylamino)-benzoic acid]",100%
12,"O=C(c1ccc(Nc2ccc(F)c(F)c2)cc1)c1ccc(Nc2ccc(F)c(F)c2)c(C(=O)O)c1 [5:3, 2-(3,4-Difluoro-phenylamino)-5-[4-(3,4-difluoro-phenylamino)-benzoyl]-benzoic acid]",84%
13,"O=C(c1ccc(NS(=O)(=O)c2ccc(Cl)c(Cl)c2)c(C(=O)O)c1)c1ccc(NS(=O)(=O)c2ccc(Cl)c(Cl)c2)c(C(=O)O)c1 [Example 5, 2-((3,4-dichlorophenyl)sulfonyl-amino)-5-(3-carboxy-4-(((3,4-dichlorophenyl)sulfonyl)amino)-benzoyl)benzoic acid]",98%
14,"O=C(c1ccc(Nc2cccc(Cl)c2)cc1)c1ccc(Oc2ccc(F)c(F)c2)c(C(=O)O)c1 [8:2, 5-[4-(3-Chloro-phenylamino)-benzoyl]-2-(3,4-difluoro-phenoxy)-benzoic acid]",98%
15,"CN(c1ccc(Cl)cc1)c1ccc(C(=O)c2ccc(N(C)c3ccc(Cl)cc3)c(C(=O)O)c2)cc1C(=O)O [11:2, 5-{3-Carboxy-4-[(4-chlorophenyl)-methyl-amino]benzoyl}-2-[(4-chloro-phenyl)-methyl-amino]benzoic acid]",82%
